Measurements from patent US20250171495A1, “MUTLI-TARGETED SERINE PROTEASE INHIBITORS FOR TREATMENT OF CANCER AND VIRAL INFECTION” (Washington University, priority 2023, published 2025).

Experiments:
Assay type in all cases: biochemical
hepsin = target: T1, hepsin (Homo sapiens, UniProt P05981); experiment: HyCoSuL P4-P2 substrate specificity screening, hepsin; conditions: for P2 Position Substrate Activity for hepsin (percent substrate cleavage/proteolysis): residue fixed at P2 position; for P2 Position Substrate Activity for hepsin (percent substrate cleavage/proteolysis) / P3 Position Substrate Activity for hepsin (percent substrate cleavage/proteolysis): P1-Arg HyCoSuL, 100 μM, best recognized amino acid set to 100%; for P3 Position Various Amino Acids Substrate Activity, hepsin (percent substrate cleavage/proteolysis): residue fixed at P3 position of substrate library; for P4 Position Various Amino Acids Substrate Activity, hepsin (percent substrate proteolysis/cleavage): residue fixed at P4 position of substrate library; for P3 Position Substrate Activity for hepsin (percent substrate cleavage/proteolysis): residue fixed at P3 position
T1 construct: purchased R&D Systems 4776-SE-010

HGFA = target: T2, HGFA (Homo sapiens, UniProt Q04756); experiment: HyCoSuL P4-P2 substrate specificity screening, HGFA; conditions: for P2 Position Substrate Activity for HGFA (percent substrate cleavage/proteolysis): residue fixed at P2 position; for P2 Position Substrate Activity for HGFA (percent substrate cleavage/proteolysis) / P3 Position Substrate Activity for HGFA (percent substrate cleavage/proteolysis): P1-Arg HyCoSuL, 100 μM, best recognized amino acid set to 100%; for P3 Position Various Amino Acids Substrate Activity, HGFA (percent substrate cleavage/proteolysis): residue fixed at P3 position of substrate library; for P4 Position Various Amino Acids Substrate Activity, HGFA (percent substrate proteolysis/cleavage): residue fixed at P4 position of substrate library; for P3 Position Substrate Activity for HGFA (percent substrate cleavage/proteolysis): residue fixed at P3 position
T2 sequence (Q04756 373-655): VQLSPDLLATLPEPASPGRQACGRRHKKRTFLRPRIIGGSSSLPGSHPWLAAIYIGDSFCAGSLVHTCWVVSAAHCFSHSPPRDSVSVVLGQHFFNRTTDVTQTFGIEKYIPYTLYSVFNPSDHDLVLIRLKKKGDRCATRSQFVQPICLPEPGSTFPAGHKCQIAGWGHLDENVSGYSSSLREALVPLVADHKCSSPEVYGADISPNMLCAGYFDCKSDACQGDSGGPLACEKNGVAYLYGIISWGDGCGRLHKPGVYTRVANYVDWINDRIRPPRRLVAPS

matriptase = target: T3, matriptase (Homo sapiens, UniProt Q9Y5Y6); experiment: HyCoSuL P4-P2 substrate specificity screening, matriptase; conditions: for P2 Position Substrate Activity for matriptase (percent substrate cleavage/proteolysis): residue fixed at P2 position; for P2 Position Substrate Activity for matriptase (percent substrate cleavage/proteolysis) / P3 Position Substrate Activity for matriptase (percent substrate cleavage/proteolysis): P1-Arg HyCoSuL, 100 μM, best recognized amino acid set to 100%; for P3 Position Various Amino Acids Substrate Activity, matriptase (percent substrate cleavage/proteolysis): residue fixed at P3 position of substrate library; for P4 Position Various Amino Acids Substrate Activity, matriptase (percent substrate proteolysis/cleavage): residue fixed at P4 position of substrate library; for P3 Position Substrate Activity for matriptase (percent substrate cleavage/proteolysis): residue fixed at P3 position
T3 sequence (Q9Y5Y6 1-855): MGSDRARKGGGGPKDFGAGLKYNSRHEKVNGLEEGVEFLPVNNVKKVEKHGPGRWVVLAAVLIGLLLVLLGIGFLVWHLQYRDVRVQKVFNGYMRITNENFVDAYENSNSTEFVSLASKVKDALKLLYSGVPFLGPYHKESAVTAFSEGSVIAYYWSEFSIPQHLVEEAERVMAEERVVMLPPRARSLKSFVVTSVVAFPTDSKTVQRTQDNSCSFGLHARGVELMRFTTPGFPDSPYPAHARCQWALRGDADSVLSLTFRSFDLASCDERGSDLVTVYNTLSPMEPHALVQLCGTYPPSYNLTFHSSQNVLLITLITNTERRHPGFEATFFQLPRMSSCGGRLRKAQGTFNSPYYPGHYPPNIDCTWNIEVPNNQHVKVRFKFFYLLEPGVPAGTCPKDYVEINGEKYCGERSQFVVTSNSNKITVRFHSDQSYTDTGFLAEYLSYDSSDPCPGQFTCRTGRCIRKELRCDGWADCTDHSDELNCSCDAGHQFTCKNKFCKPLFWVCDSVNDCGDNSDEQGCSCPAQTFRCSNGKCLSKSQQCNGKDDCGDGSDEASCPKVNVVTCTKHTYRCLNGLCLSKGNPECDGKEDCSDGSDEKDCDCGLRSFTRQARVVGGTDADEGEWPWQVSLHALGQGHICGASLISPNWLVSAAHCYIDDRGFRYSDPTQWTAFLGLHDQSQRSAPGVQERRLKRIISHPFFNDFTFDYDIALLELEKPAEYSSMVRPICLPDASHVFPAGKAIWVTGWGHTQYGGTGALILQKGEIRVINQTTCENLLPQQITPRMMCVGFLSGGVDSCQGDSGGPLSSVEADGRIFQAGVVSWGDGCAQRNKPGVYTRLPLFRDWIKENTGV

TMPRSS2 = TMPRSS2 (Homo sapiens, UniProt O15393); experiment: PS-SCL / HyCoSuL substrate specificity screening, TMPRSS2; conditions: for P2 Position Substrate Activity for TMPRSS2 (percent substrate cleavage/proteolysis): residue fixed at P2 position of substrate library; for P2 Position Substrate Activity for TMPRSS2 (percent substrate cleavage/proteolysis) / P3 Position Substrate Activity for TMPRSS2 (percent substrate cleavage/proteolysis): best recognized amino acid set to 100%; for P3 Position Various Amino Acids Substrate Activity, TMPRSS2 (percent substrate cleavage/proteolysis) / P3 Position Substrate Activity for TMPRSS2 (percent substrate cleavage/proteolysis): residue fixed at P3 position of substrate library; for P4 Position Various Amino Acids Substrate Activity, TMPRSS2 (percent substrate proteolysis/cleavage): residue fixed at P4 position of substrate library
Chain of TMPRSS2 (O15393 whole entry): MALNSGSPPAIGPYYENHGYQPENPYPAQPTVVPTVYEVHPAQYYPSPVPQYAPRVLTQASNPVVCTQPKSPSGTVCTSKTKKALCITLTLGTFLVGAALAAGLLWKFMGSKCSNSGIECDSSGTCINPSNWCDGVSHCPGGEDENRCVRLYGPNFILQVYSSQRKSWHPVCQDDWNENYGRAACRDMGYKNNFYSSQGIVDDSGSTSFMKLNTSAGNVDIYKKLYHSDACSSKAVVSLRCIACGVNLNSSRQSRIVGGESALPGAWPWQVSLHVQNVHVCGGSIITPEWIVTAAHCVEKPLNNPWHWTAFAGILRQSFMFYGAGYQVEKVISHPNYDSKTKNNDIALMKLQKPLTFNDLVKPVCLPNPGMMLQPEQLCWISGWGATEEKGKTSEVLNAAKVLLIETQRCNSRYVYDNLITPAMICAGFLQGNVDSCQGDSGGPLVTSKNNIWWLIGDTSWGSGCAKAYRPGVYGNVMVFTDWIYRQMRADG

T1 sequence (P05981 163-417 limits assumed): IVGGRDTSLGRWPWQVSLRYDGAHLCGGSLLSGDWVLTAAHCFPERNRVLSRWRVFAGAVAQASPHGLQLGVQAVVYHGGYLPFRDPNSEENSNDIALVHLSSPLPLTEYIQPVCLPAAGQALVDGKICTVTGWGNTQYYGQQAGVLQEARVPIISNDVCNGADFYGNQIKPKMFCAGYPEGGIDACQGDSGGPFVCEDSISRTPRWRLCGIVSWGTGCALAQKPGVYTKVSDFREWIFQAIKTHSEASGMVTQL
T1 sequence (P05981 1-162 partner limits assumed): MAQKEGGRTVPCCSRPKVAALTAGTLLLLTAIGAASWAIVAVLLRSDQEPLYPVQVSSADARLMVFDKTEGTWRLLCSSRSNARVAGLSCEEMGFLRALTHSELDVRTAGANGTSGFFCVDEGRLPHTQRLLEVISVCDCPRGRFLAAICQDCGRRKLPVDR

| Compound | P2 Position Substrate Activity for hepsin (percent substrate cleavage/proteolysis) (hepsin) | P3 Position Various Amino Acids Substrate Activity, hepsin (percent substrate cleavage/proteolysis) (hepsin) | P4 Position Various Amino Acids Substrate Activity, hepsin (percent substrate proteolysis/cleavage) (hepsin) | P2 Position Substrate Activity for HGFA (percent substrate cleavage/proteolysis) (HGFA) | P3 Position Various Amino Acids Substrate Activity, HGFA (percent substrate cleavage/proteolysis) (HGFA) | P4 Position Various Amino Acids Substrate Activity, HGFA (percent substrate proteolysis/cleavage) (HGFA) | P2 Position Substrate Activity for matriptase (percent substrate cleavage/proteolysis) (matriptase) | P3 Position Various Amino Acids Substrate Activity, matriptase (percent substrate cleavage/proteolysis) (matriptase) | P4 Position Various Amino Acids Substrate Activity, matriptase (percent substrate proteolysis/cleavage) (matriptase) | P2 Position Substrate Activity for TMPRSS2 (percent substrate cleavage/proteolysis) (TMPRSS2) | P3 Position Various Amino Acids Substrate Activity, TMPRSS2 (percent substrate cleavage/proteolysis) (TMPRSS2) | P4 Position Various Amino Acids Substrate Activity, TMPRSS2 (percent substrate proteolysis/cleavage) (TMPRSS2) | P3 Position Substrate Activity for hepsin (percent substrate cleavage/proteolysis) (hepsin) | P3 Position Substrate Activity for HGFA (percent substrate cleavage/proteolysis) (HGFA) | P3 Position Substrate Activity for matriptase (percent substrate cleavage/proteolysis) (matriptase) | P3 Position Substrate Activity for TMPRSS2 (percent substrate cleavage/proteolysis) (TMPRSS2) |
| --- | --- | --- | --- | --- | --- | --- | --- | --- | --- | --- | --- | --- | --- | --- | --- | --- |
| CC(C)[C@H](N)C(=O)O [L-Val] | 51.85% | 16.77% | 43.08% | 8.33% | 9.51% | 11.66% | 8% | 18% | 29% | 28.86% | 19.38% | 34.19% | – | – | – | – |
| L-Pro | 13.10% | 2.09% | 56.00% | 2.21% | 2.04% | 10.30% | 22% | 2% | 40% | 16.87% | 0.00% | 40.11% | – | – | – | – |
| L-Ser | 18.40% | 38.70% | 31.63% | 3.24% | 14.57% | 7.04% | 28% | 33% | 19% | 19.86% | 35.95% | 20.12% | – | – | – | – |
| D-Ala | 0.00% | 48.09% | 18.44% | 0.00% | 9.84% | 7.11% | 0% | 2% | 6% | 0.00% | 0.00% | 27.00% | – | – | – | – |
| D-Pro | 0.00% | 38.88% | 20.45% | 0.00% | 4.96% | 10.30% | 0% | 0% | 9% | 0.00% | 0.00% | 19.76% | – | – | – | – |
| L-Glu | 12.19% | 58.69% | 29.82% | 3.35% | 15.98% | 9.01% | 6% | 44% | 18% | 6.08% | 56.51% | 9.81% | – | – | – | – |
| L-Phe | 25.22% | 2.91% | 30.80% | 16.60% | 13.51% | 9.42% | 39% | 19% | 14% | 95.60% | 14.74% | 31.64% | – | – | – | – |
| L-Dap | 10.01% | – | 35.65% | 1.49% | – | 13.31% | 9% | 52% | 16% | 4.32% | – | 16.80% | 48.71% | 24.27% | 51.80% | 43.61% |
| L-Met(O) | 11.40% | – | 22.86% | 1.68% | – | 6.64% | 1% | 52% | 10% | 0.00% | – | 24.40% | 68.16% | 16.63% | 51.68% | 57.41% |
